Laboratory results as given in ChEMBL document CHEMBL4390652, “Design, biological evaluation and X-ray crystallography of nanomolar multifunctional ligands targeting simultaneously acetylcholinesterase and glycogen synthase kinase-3” (Eur J Med Chem, 2019).

Legend:
[1] = biological target: Death-associated protein kinase 3 (Homo sapiens) (UniProt O43293); assay: Binding affinity to wild-type human partial length DAPK3 (M1 to A277 residues) expressed in bacterial expression system assessed as residual binding level at 10 uM by Kinomescan method relative to control
[2] = biological target: Serine/threonine-protein kinase Nek9 (Homo sapiens) (UniProt Q8TD19); assay: Binding affinity to wild-type human partial length NEK9 (P32 to R328 residues) expressed in bacterial expression system assessed as residual binding level at 10 uM by Kinomescan method relative to control
[3] = biological target: Receptor-interacting serine/threonine-protein kinase 4 (Homo sapiens) (UniProt P57078); assay: Binding affinity to wild-type human partial length RIPK4 (M1 to V303 residues) expressed in mammalian expression system assessed as residual binding level at 10 uM by Kinomescan method relative to control
[4] = biological target: Calcium/calmodulin-dependent protein kinase type IV (Homo sapiens) (UniProt Q16566); assay: Binding affinity to wild-type human partial length CAMK4 (A22 to A322 residues) expressed in bacterial expression system assessed as residual binding level at 10 uM by Kinomescan method relative to control
[5] = biological target: Serine/threonine-protein kinase 4 (Homo sapiens) (UniProt Q13043); assay: Binding affinity to wild-type human full length MST1 (M1 to F487 residues) expressed in bacterial expression system assessed as residual binding level at 10 uM by Kinomescan method relative to control
[6] = tested on: Epidermal growth factor receptor (Homo sapiens), P00533 [T790M]; assay: Binding affinity to human partial length EGFR T790M mutant (R669 to G1022 residues) expressed in mammalian expression system assessed as residual binding level at 10 uM by Kinomescan method relative to control
[7] = biological target: Wee1-like protein kinase (Homo sapiens) (UniProt P30291); assay: Binding affinity to wild-type human partial length WEE1 (M291 to K575 residues) expressed in bacterial expression system assessed as residual binding level at 10 uM by Kinomescan method relative to control
[8] = biological target: Homeodomain-interacting protein kinase 4 (Homo sapiens) (UniProt Q8NE63); assay: Binding affinity to wild-type human partial length HIPK4 (M1 to V384 residues) expressed in bacterial expression system assessed as residual binding level at 10 uM by Kinomescan method relative to control
[9] = biological target: Serine/threonine-protein kinase PAK 6 (Homo sapiens) (UniProt Q9NQU5); assay: Binding affinity to wild-type human partial length PAK6 (N298 to C681 residues) expressed in bacterial expression system assessed as residual binding level at 10 uM by Kinomescan method relative to control
[10] = biological target: TGF-beta receptor type-2 (Homo sapiens) (UniProt P37173); assay: Binding affinity to wild-type human partial length TGFBR2 (I218 to K567 residues) expressed in bacterial expression system assessed as residual binding level at 10 uM by Kinomescan method relative to control
[11] = biological target: Interleukin-1 receptor-associated kinase 4 (Homo sapiens) (UniProt Q9NWZ3); assay: Binding affinity to wild-type human partial length IRAK4 (M1 to S460 residues) expressed in mammalian expression system assessed as residual binding level at 10 uM by Kinomescan method relative to control
[12] = biological target: Casein kinase I isoform epsilon (Homo sapiens) (UniProt P49674); assay: Binding affinity to wild-type human full length CSNK1E (M1 to K416 residues) expressed in bacterial expression system assessed as residual binding level at 10 uM by Kinomescan method relative to control
[13] = tested on: Proto-oncogene tyrosine-protein kinase receptor Ret (Homo sapiens), P07949 [V804M]; assay: Binding affinity to human partial length RET V804M mutant (E713 to D1014 residues) expressed in bacterial expression system assessed as residual binding level at 10 uM by Kinomescan method relative to control
[14] = biological target: Ephrin type-B receptor 2 (Homo sapiens) (UniProt P29323); assay: Binding affinity to wild-type human partial length EPHB2 (I597 to L902 residues) expressed in bacterial expression system assessed as residual binding level at 10 uM by Kinomescan method relative to control
[15] = biological target: Serine/threonine-protein kinase RIO3 (Homo sapiens) (UniProt O14730); assay: Binding affinity to wild-type human full length RIOK3 (M1 to E519 residues) expressed in bacterial expression system assessed as residual binding level at 10 uM by Kinomescan method relative to control
[16] = biological target: BMP-2-inducible protein kinase (Homo sapiens) (UniProt Q9NSY1); assay: Binding affinity to wild-type human partial length BIKE (S34 to N329 residues) expressed in bacterial expression system assessed as residual binding level at 10 uM by Kinomescan method relative to control
[17] = biological target: Megakaryocyte-associated tyrosine-protein kinase (Homo sapiens) (UniProt P42679); assay: Binding affinity to wild-type human full length CTK (M43 to P508 residues) expressed in mammalian expression system assessed as residual binding level at 10 uM by Kinomescan method relative to control
[18] = biological target: Serine/threonine-protein kinase Sgk3 (Homo sapiens) (UniProt Q96BR1); assay: Binding affinity to wild-type human partial length SGK3 (M119 to L496 residues) expressed in mammalian expression system assessed as residual binding level at 10 uM by Kinomescan method relative to control
[19] = biological target: Serine/threonine-protein kinase 17B (Homo sapiens) (UniProt O94768); assay: Binding affinity to wild-type human full length DRAK2 (M1 to C372 residues) expressed in bacterial expression system assessed as residual binding level at 10 uM by Kinomescan method relative to control
[20] = tested on: SH-SY5Y; assay: Cytotoxicity against human SH-SY5Y cells assessed as reduction in cell viability incubated for 72 hrs by MTT assay; format: cell-based
[21] = biological target: Cyclin-dependent kinase 14 (Homo sapiens) (UniProt O94921); assay: Binding affinity to wild-type human full length PFTK1 (M1 to H451 residues) expressed in bacterial expression system assessed as residual binding level at 10 uM by Kinomescan method relative to control
[22] = biological target: Mitogen-activated protein kinase kinase kinase 9 (Homo sapiens) (UniProt P80192); assay: Binding affinity to wild-type human partial length MLK1 (V88 to W426 residues) expressed in bacterial expression system assessed as residual binding level at 10 uM by Kinomescan method relative to control
[23] = biological target: Phosphatidylinositol 4-phosphate 5-kinase type-1 gamma (Homo sapiens) (UniProt O60331); assay: Binding affinity to wild-type human partial length PIP5K1C (M1 to T668 residues) expressed in mammalian expression system assessed as residual binding level at 10 uM by Kinomescan method relative to control
[24] = biological target: Serine/threonine-protein kinase PRP4 homolog (Homo sapiens) (UniProt Q13523); assay: Binding affinity to wild-type human partial length PRP4 (D657 to I1007 residues) expressed in bacterial expression system assessed as residual binding level at 10 uM by Kinomescan method relative to control
[25] = tested on: Huh-7; assay: Cytotoxicity against human HuH7 cells assessed as growth inhibition incubated for 48 hrs by Hoechst 33342 staining based assay; format: cell-based; conditions: Huh-7, 48 h

Serine/threonine-protein kinase PAK 6 (Homo sapiens), sequence (Q9NQU5 whole entry, looked up, the tested form may be a part): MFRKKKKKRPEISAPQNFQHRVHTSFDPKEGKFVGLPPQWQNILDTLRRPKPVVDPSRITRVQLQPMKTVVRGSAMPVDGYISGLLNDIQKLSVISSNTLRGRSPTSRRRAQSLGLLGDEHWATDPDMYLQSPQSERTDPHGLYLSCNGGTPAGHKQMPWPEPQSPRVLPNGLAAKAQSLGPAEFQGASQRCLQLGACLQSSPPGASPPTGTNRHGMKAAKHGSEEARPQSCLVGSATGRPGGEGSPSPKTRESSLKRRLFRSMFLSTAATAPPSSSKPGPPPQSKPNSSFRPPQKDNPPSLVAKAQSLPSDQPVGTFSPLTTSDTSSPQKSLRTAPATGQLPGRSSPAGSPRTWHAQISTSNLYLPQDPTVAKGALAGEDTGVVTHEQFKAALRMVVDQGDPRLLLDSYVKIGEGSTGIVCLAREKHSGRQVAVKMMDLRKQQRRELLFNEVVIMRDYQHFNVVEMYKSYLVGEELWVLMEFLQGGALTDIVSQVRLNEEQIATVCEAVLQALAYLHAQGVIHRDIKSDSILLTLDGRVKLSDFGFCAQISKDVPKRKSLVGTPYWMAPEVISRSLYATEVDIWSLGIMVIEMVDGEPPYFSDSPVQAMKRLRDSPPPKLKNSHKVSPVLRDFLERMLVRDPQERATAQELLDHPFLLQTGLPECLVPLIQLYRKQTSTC
Proto-oncogene tyrosine-protein kinase receptor Ret (Homo sapiens), P07949 [V804M], sequence (P07949 whole entry V804M, the tested form may be a part): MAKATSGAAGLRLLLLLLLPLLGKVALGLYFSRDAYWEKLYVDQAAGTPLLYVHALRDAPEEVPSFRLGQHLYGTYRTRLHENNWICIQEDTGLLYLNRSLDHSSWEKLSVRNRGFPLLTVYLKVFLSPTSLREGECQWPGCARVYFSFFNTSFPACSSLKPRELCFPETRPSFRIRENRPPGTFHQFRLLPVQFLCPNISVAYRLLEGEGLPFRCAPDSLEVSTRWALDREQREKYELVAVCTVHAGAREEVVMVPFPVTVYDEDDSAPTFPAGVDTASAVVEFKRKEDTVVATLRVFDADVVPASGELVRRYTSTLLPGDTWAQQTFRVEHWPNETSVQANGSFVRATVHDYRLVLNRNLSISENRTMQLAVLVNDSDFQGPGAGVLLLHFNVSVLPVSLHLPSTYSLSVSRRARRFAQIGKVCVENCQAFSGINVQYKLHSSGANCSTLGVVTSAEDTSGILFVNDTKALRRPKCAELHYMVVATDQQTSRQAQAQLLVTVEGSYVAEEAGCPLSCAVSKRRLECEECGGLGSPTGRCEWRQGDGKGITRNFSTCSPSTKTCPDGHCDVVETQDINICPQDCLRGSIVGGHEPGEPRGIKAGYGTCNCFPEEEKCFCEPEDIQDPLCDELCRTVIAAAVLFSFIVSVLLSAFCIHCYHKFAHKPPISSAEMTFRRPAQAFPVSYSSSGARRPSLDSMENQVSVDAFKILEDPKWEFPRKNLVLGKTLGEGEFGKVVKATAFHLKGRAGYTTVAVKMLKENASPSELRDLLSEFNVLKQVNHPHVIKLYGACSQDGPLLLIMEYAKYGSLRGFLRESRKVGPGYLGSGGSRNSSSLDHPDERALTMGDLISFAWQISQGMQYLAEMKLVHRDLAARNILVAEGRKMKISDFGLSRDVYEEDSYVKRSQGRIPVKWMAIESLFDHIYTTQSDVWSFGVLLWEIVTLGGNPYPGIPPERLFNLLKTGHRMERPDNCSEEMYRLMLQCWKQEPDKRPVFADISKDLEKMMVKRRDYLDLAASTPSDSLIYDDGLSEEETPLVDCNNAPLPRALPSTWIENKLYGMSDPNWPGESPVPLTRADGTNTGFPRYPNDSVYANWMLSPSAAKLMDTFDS
Megakaryocyte-associated tyrosine-protein kinase (Homo sapiens), sequence (P42679 whole entry, the tested form may be a part): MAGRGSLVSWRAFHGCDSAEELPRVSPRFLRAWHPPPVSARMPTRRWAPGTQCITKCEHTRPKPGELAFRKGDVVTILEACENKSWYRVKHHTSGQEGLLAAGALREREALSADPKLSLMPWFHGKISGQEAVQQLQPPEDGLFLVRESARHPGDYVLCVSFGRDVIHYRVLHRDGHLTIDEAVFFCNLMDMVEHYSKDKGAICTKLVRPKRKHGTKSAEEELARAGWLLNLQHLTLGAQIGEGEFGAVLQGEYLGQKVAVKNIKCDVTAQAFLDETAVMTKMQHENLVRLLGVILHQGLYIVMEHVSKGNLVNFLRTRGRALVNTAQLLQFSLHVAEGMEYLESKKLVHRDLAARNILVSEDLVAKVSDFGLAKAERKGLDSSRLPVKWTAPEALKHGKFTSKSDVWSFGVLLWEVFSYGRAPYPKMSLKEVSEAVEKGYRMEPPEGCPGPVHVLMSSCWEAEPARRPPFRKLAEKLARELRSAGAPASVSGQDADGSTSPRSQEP
Receptor-interacting serine/threonine-protein kinase 4 (Homo sapiens), sequence (P57078 whole entry, the tested form may be a part): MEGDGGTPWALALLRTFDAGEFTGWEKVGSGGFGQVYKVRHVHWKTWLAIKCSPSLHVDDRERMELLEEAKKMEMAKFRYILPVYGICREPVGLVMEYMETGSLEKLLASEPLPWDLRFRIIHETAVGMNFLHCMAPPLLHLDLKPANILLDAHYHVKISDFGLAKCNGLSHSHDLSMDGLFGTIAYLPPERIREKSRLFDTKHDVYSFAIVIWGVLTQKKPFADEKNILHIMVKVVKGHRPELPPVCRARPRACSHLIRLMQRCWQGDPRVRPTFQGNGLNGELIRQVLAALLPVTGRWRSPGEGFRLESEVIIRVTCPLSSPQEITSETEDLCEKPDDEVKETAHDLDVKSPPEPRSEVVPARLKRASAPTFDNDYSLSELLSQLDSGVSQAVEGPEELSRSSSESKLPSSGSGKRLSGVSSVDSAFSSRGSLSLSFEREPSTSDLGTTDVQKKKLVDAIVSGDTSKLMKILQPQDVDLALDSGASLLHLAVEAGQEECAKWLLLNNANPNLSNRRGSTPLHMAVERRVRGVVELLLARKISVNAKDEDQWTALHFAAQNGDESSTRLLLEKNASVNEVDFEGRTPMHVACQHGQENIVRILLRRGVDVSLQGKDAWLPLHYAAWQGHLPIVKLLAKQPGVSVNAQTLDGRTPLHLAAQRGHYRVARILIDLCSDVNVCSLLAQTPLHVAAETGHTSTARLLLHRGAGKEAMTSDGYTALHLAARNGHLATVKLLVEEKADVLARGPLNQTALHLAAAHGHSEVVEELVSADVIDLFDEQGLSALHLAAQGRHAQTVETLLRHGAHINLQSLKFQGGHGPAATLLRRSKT
Serine/threonine-protein kinase 17B (Homo sapiens), sequence (O94768 whole entry, the tested form may be a part): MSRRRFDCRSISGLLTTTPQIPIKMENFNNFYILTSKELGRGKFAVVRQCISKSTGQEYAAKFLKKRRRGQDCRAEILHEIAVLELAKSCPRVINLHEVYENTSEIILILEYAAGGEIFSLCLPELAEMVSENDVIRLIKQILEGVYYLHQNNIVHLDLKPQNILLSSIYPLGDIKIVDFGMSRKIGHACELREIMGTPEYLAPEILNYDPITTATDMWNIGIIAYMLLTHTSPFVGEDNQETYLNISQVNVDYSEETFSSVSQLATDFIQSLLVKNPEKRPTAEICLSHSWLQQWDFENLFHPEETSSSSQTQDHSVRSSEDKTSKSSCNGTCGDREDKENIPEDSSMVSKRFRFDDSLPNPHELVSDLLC
Ephrin type-B receptor 2 (Homo sapiens), sequence (P29323 whole entry, the tested form may be a part): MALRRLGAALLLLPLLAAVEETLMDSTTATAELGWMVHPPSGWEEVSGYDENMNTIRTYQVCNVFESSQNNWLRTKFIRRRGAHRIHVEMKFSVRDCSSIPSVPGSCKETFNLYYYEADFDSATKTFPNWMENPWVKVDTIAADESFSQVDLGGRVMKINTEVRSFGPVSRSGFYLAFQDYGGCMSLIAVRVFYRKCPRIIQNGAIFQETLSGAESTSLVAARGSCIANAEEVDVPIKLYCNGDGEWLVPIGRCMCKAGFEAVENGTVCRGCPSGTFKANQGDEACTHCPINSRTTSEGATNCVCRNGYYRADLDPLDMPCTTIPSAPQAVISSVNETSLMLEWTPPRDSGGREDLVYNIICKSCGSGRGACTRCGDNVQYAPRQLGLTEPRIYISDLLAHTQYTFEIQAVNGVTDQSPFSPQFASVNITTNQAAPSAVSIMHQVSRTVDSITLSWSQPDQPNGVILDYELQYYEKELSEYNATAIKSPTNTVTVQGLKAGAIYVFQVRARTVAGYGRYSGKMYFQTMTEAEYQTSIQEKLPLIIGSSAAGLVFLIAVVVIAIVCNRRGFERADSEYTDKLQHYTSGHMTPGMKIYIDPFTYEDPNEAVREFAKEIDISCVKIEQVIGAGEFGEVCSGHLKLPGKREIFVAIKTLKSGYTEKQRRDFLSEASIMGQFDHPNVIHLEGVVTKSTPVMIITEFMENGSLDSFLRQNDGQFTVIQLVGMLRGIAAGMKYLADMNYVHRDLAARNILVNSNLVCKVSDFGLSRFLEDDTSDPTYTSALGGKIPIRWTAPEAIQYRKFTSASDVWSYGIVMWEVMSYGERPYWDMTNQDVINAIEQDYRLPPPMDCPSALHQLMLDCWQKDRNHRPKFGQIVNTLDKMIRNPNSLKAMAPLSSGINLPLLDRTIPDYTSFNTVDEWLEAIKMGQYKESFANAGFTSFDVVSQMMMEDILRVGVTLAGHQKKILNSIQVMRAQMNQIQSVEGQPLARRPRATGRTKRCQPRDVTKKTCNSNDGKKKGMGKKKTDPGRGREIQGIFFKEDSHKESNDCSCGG
Calcium/calmodulin-dependent protein kinase type IV (Homo sapiens), sequence (Q16566 whole entry, the tested form may be a part): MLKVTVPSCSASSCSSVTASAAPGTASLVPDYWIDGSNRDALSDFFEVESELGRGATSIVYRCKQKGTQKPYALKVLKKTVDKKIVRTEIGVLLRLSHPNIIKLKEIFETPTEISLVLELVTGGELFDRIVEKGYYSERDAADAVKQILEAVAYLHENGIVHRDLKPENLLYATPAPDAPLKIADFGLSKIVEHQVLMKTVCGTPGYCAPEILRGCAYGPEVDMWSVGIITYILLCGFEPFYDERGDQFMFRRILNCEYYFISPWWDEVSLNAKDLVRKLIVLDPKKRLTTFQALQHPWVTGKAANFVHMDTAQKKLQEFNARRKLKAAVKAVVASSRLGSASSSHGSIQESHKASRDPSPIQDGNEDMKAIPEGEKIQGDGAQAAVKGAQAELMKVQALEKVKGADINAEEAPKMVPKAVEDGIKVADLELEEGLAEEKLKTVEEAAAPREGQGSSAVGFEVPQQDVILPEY

`O=C(Nc1cc(-c2cn(CCNc3c4c(nc5ccccc35)CCCC4)nn2)ccn1)Nc1cccc2c1C1CCCCN1C2=O` (racemic) showed an Activity [1] of 66%, an Activity [2] of 62% and an Activity [3] of 30%. For the same molecule, the Activity [4] was 100%, the Activity [5] was 66% and the Activity [6] was 70%. For the same molecule, the Activity [7] was 100%, the Activity [8] was 84% and the Activity [9] was 66%. The Activity [10] was 19%, the Activity [11] was 93% and the Activity [12] was 0.15%. It also gave an Activity [13] of 13%, an Activity [14] of 61% and an Activity [15] of 11%. It also gave an Activity [16] of 2.3%, an Activity [17] of 100% and an Activity [18] of 1.3%. For the same molecule, the Activity [19] was 1.7%, the IC50 [20] was 13 µM and the Activity [21] was 28%. For the same molecule, the Activity [22] was 38%, the Activity [23] was 100% and the Activity [24] was 15%. For the same molecule, the IC50 [25] was 3 µM.
